US7423054B2, “Therapeutic pyrazolo[3,4-b]pyridines and indazoles” (Warner Lambert Company LLC, priority 2004, dated 2008)
Structures can show the parent of a compound that is named as a salt.

Columns and labels:
[1] = molecular target: T1, human serotonin transporter (hSERT) (Homo sapiens, UniProt P31645); experiment: hSERT receptor binding ([125I]-RTI-55 displacement, membranes of transfected HEK-293 cells); conditions: HEK-293 membranes, Ki from IC50 by Cheng-Prusoff, read-out: SERT Ki
T1 construct: expressed in transfected cells; host or cells: HEK-293 cells (membrane preparation)
T1 sequence (P31645 whole entry): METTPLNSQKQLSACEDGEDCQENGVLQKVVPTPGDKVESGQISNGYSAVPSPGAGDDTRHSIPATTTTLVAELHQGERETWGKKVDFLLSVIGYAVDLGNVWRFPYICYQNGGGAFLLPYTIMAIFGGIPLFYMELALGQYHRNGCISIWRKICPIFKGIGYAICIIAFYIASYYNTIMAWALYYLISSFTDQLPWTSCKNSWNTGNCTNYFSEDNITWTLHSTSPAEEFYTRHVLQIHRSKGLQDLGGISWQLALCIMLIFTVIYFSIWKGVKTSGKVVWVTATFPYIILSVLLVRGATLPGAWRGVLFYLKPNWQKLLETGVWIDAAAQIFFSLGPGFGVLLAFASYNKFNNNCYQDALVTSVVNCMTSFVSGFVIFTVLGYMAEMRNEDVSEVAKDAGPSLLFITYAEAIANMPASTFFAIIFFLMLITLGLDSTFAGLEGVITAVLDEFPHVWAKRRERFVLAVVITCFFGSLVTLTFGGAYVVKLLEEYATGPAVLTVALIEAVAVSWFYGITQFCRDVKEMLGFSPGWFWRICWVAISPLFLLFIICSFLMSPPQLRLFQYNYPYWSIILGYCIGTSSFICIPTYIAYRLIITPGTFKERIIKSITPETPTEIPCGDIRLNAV
Experimental: (§1) The ability of the compounds of the present invention to inhibit a norepinephrine transporter and/or a serotonin transporter can be determined using conventional radioligand receptor transport assays. The receptors can be heterologously expressed in cell lines and experiments conducted in membrane preparations from the cell lines that express a norepinephrine transporter and/or a serotonin transporter.
(§2) Cell pastes of HEK-293 cells transfected with a human serotonin transporter cDNA were prepared. The cell pastes were resuspended in 400 to 700 ml of Krebs-HEPES assay buffer (25 mM HEPES, 122 mM NaCl, 3 mM KCl, 1.2 mM MgSO4, 1.3 mM CaCl2, and 11 mM glucose, pH 7.4) with a Polytron homogenizer at Setting 7 for 30 seconds. Aliquots of membranes (˜2.5 mg/ml protein) were stored in liquid nitrogen until used.
Assays were set up in FlashPlates pre-coated with 0.1% PEI in a total volume of 250 μl containing: test compound (10^−5M to 10^−12M), cell membranes, and 50 pM [^125I]-RTI-55 (Perkin Elmer, NEX-272; specific activity 2200 Ci/mmol). The reaction was incubated and gently agitated for 90 minutes at room temperature, and terminated by removal of assay volume. Plates were covered, and bound [^125I]-RTI-55 was determined using a Wallac Trilux Beta Plate Counter. Test compounds were run in duplicate, and specific binding was defined as the difference between binding in the presence and absence of 10 μM citalopram.
Excel and GraphPad Prism software were used for data calculation and analysis. IC50 values were converted to Ki values using the Cheng-Prusoff equation. The Ki values (nM) for the hSERT are reported below in Table 11: […]

[2] = molecular target: T2, human norepinephrine transporter (hNET) (Homo sapiens, UniProt P23975); experiment: hNET receptor binding ([125I]-RTI-55 displacement, membranes of transfected HEK-293 cells); conditions: HEK-293 membranes, Ki from IC50 by Cheng-Prusoff, read-out: NET Ki
T2 construct: expressed in transfected cells; host or cells: HEK-293 cells (membrane preparation)
T2 sequence (P23975 whole entry): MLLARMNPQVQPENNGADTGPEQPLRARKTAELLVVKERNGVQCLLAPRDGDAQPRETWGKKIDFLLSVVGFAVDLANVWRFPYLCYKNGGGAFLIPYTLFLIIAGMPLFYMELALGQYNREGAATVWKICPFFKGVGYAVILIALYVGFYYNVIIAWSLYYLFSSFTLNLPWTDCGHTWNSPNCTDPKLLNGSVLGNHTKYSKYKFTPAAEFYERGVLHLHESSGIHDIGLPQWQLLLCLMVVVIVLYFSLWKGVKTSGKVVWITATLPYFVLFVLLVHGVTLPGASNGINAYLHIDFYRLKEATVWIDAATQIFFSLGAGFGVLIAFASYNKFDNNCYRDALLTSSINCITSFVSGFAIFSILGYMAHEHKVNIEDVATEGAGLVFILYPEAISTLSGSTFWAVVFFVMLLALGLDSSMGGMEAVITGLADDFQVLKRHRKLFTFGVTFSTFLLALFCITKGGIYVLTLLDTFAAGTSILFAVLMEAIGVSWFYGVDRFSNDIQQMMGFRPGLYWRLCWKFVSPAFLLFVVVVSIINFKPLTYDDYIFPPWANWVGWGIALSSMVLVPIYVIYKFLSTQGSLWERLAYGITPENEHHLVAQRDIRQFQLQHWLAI
Excerpt: as §1
as §2, with “norepinephrine” for “serotonin”, “setting” for “Setting”, “(5” for “(˜2.5”
The binding assay was set up in Beckman deep-well polypropylene plates with a total volume of 250 μl containing: test compound (10^−5M to 10^−12M), cell membranes, and 50 pM [^125I]-RTI-55 (Perkin Elmer, NEX-272; specific activity 2200 Ci/mmol). The reaction was incubated by gentle agitation for 90 minutes at room temperature and was terminated by filtration through Whatman GF/C filter plates using a Brandel 96-well plate harvester. Scintillation fluid (100 μl) was added to each well, and bound [^125I]-RTI-55 was determined using a Wallac Trilux Beta Plate Counter. Test compounds were run in duplicate, and specific binding was defined as the difference between binding in the presence and absence of 10 μM desipramine.
Excel and GraphPad Prism software were used for data calculation and analysis. IC50 values were converted to Ki values using the Cheng-Prusoff equation. The Ki values (nM) for the hNET are reported below in Table 11.

Compound	Ki [1] [nM]	Ki [2] [nM]
c1ccc(-n2nc(OC3CCCNC3)c3ccccc32)cc1 (racemic) [Example 15, (±)-1-Phenyl-3-(piperidin-3-yloxy)-1H-indazole hydrochloride]	1460	329
c1ccc(-n2nc(OCC3CCCNC3)c3ccccc32)cc1 (racemic) [Example 16, (±)-1-Phenyl-3-(piperidin-3-ylmethoxy)-1H-indazole hydrochloride]	224	21.5
c1ccc(-n2nc(OCC3CCNCC3)c3ccccc32)cc1 (racemic) [Example 17, (±)-1-Phenyl-3-(piperidin-4-ylmethoxy)-1H-indazole hydrochloride]	28	151
Fc1ccccc1-n1nc(OC[C@@H]2CNCCO2)c2ccccc21 [Example 2, (S)-(+)-1-(2-Fluorophenyl)-3-(morpholin-2-ylmethoxy)-1H-indazole maleate]	1620	9.28
Fc1ccc(-n2nc(OC[C@@H]3CNCCO3)c3ccccc32)c(F)c1 [Example 3, (S)-(+)-1-(2,4-Difluorophenyl)-3-(morpholin-2-ylmethoxy)-1H-indazole maleate]	832	3.4
Fc1ccccc1-n1nc(OCC2CCCNC2)c2ccccc21 (stereo not shown) [Example 4, 1-(2-Fluorophenyl)-3-(piperidin-3-ylmethoxy)-1H-indazole hydrochloride]	270	3
Fc1ccccc1-n1nc(OC[C@H]2CNCCO2)c2ccccc21 [Example 5, (R)-(−)-1-(2-Fluorophenyl)-3-(morpholin-2-ylmethoxy)-1H-indazole hydrochloride]	1610	84
Fc1ccccc1-n1nc(OC[C@H]2CCCNC2)c2ccccc21 [Example 6, (S)-(−)-1-(2-Fluorophenyl)-3-(piperidin-3-ylmethoxy)-1H-indazole hydrochloride]	192	1.65
Fc1ccc(-n2nc(OC3CCNCC3)c3ccccc32)c(F)c1 [Example 10, 1-(2,4-Difluoro-phenyl)-3-(piperidin-4-yloxy)-1H-indazole hydrochloride]	36.1	14.3
Fc1ccccc1-n1nc(OC[C@@H]2CCNC2)c2ccccc21 [Example 11, (R)-1-(2-Fluoro-phenyl)-3-(pyrrolidin-3-ylmethoxy)-1H-indazole hydrochloride]	279	14
Fc1ccccc1-n1nc(O[C@H]2CCCN2)c2ccccc21 [Example 12, (S)-(−)-1-(2-Fluorophenyl)-3-(pyrrolidin-2-yloxy)-1H-indazole hydrochloride]	1010	12.5
Fc1ccccc1-n1nc(O[C@@H]2CCCN2)c2ccccc21 [Example 13, (R)-(+)-1-(2-Fluorophenyl)-3-(pyrrolidin-2-yloxy)-1H-indazole maleate]	5290	131
c1ccc(-n2nc(OC[C@@H]3CCCNC3)c3ccccc32)cc1 [Example 18, (R)-(+)-1-Phenyl-3-(piperidin-3-ylmethoxy)-1H-indazole hydrochloride]	121	95.5
c1ccc(-n2nc(OC[C@H]3CCCNC3)c3ccccc32)cc1 [Example 19, (S)-(−)-1-Phenyl-3-(piperidin-3-ylmethoxy)-1H-indazole hydrochloride]	486	5.43
c1ccc(-n2nc(OC[C@@H]3CNCCO3)c3ccccc32)cc1 [Example 21, (S)-(+)-3-(Morpholin-2-ylmethoxy)-1-phenyl-1H-indazole hydrochloride]	1120	12.5
c1ccc(-n2nc(OC[C@H]3CCNC3)c3ccccc32)cc1 [Example 22, (S)-1-Phenyl-3-(pyrrolidin-3-ylmethoxy)-1H-indazole hydrochloride]	68.2	25.7
Fc1ccc(-n2nc(OC[C@@H]3CNCCO3)c3ccccc32)cc1F [Example 23, (S)-1-(3,4-Difluoro-phenyl)-3-(morpholin-2-ylmethoxy)-1H-indazole hydrochloride]	1530	11.5
Fc1cccc(F)c1-n1nc(OC[C@H]2CCCNC2)c2ccccc21 [Example 25, (S)-1-(2,6-Difluoro-phenyl)-3-(piperidin-3-ylmethoxy)-1H-indazole maleate]	670	3.2
Fc1ccc(F)c(-n2nc(OC[C@@H]3CNCCO3)c3cc(F)ccc32)c1 [Example 26, (S)-1-(2,5-Difluoro-phenyl)-5-fluoro-3-(morpholin-2-ylmethoxy)-1H-indazole maleate]	346	6.9
Fc1ccc(F)c(-n2nc(OC[C@@H]3CNCCO3)c3ccccc32)c1 [Example 28, (S)-(+)-1-(2,5-Difluorophenyl)-3-(morpholin-2-ylmethoxy)-1H-indazole maleate]	640	5.1
Clc1cc(Cl)cc(-n2nc(OC3CCNCC3)c3ccccc32)c1 [Example 29, 1-(3,5-Dichloro-phenyl)-3-(piperidin-4-yloxy)-1H-indazole hydrochloride]	342	4050
Fc1ccc(-n2nc(OC[C@H]3CCCNC3)c3ccccc32)cc1F [Example 33, (S)-1-(3,4-Difluoro-phenyl)-3-(piperidin-3-ylmethoxy)-1H-indazole hydrochloride]	198	19.2

Further lines, results first:

Ki [1] [nM]	Ki [2] [nM]	Compound
120	16.9	Fc1cccc(-n2nc(OCC3CCCNC3)c3ccccc32)c1 (racemic) [Example 66, (±)-1-(3-Fluoro-phenyl)-3-(piperidin-3-ylmethoxy)-1H-indazole hydrochloride]
191	19.7	Fc1ccc(-n2nc(OCC3CCCNC3)c3ccccc32)cc1 (racemic) [Example 67, (±)-1-(4-Fluoro-phenyl)-3-(piperidin-3-ylmethoxy)-1H-indazole hydrochloride]
359	219	Clc1ccc(-n2nc(OCC3CCCNC3)c3ccccc32)cc1 (racemic) [Example 68, (±)-1-(4-Chloro-phenyl)-3-(piperidin-3-ylmethoxy)-1H-indazole hydrochloride]
339	98	Clc1ccc2c(c1)c(OCC1CCCNC1)nn2-c1ccccc1 (racemic) [Example 69, (±)-5-Chloro-1-phenyl-3-(piperidin-3-ylmethoxy)-1H-indazol hydrochloride]
200	33.6	Fc1ccc2c(OCC3CCCNC3)nn(-c3ccccc3F)c2c1 (racemic) [Example 70, (±)-6-Fluoro-1-(2-fluoro-phenyl)-3-(piperidin-3-ylmethoxy)-1H-indazole hydrochloride]
172	49.5	Fc1ccc2c(c1)c(OCC1CCCNC1)nn2-c1ccc(F)c(F)c1 (racemic) [Example 96, (±)-1-(3,4-Difluoro-phenyl)-5-fluoro-3-(piperidin-3-ylmethoxy)-1H-indazole hydrochloride]
81	30	Fc1ccc(-n2nc(OC3CCNCC3)c3ccccc32)cc1F [Example 34, 1-(3,4-Difluoro-phenyl)-3-(piperidin-4-yloxy)-1H-indazole hydrochloride]
82.6	24	Fc1ccc(-n2nc(OC[C@H]3CCNC3)c3ccccc32)cc1F [Example 35, (S)-1-(3,4-Difluoro-phenyl)-3-(pyrrolidin-3-ylmethoxy)-1H-indazole hydrochloride]
82.7	5.16	Fc1cccc(F)c1-n1nc(OC2CCNCC2)c2ccccc21 [Example 36, 1-(2,6-Difluoro-phenyl)-3-(piperidin-4-yloxy)-1H-indazole hydrochloride]
105	6.05	Fc1cccc(F)c1-n1nc(OC[C@H]2CCNC2)c2ccccc21 [Example 37, (S)-1-(2,6-Difluoro-phenyl)-3-(pyrrolidin-3-ylmethoxy)-1H-indazole hydrochloride]
